Source: US6962928B2, “Tetrahydroquinoline derivatives for the inhibition of osteoporosis, estrogen dependent breast cancer, endometriosis and uterine fibrosis” (Eli Lilly and Company, priority 2001, dated 2005)

Tested on: Ishikawa human endometrial tumor cells
Assay: Ishikawa alkaline phosphatase assay
Format: cell-based
Details: for EC50: Homo sapiens, Ishikawa; for EC50 / Agonist % Eff: agonist mode; for Agonist % Eff: % efficacy versus the response to Tamoxifen; for Antagonist % Eff: antagonist mode, % efficacy versus E2 (1 nM) alone
Excerpt: Ishikawa Alkaline Phosphatase Assay
Ishikawa human endometrial tumor cells are maintained in MEM (minimum essential medium, with Earle's salts and L-Glutamine, Gibco BRL, Gaithersburg, Md.), supplemented with 10% fetal bovine serum (FBS) (V/V), (Gibco BRL). One day prior to assay, growth media is changed to assay medium, DMEM/F-12 (3:1) (Dulbecco's Modified Eagle Medium: Nutrient Mixture F-12, 3:1 Mixture, phenol red-free, Gibco BRL) supplemented with 5% dextran coated charcoal stripped fetal bovine serum (DCC-FBS) (Hyclone, Logen, Utah), L-Glutamine (2 mM), MEM sodium pyruvate (1 mM), HEPES (N-[2-hydroxyethyl]piperazine-N′-[2-ethanesulfonic acid] 2 mM) all from Gibco BRL). After an overnight incubation, ishikawa cells are rinsed with Dulbecco's Phosphate Buffered Saline (1×) (D-PBS) without Ca^+2 and Mg^+2 (Gibco BRL), and trypsinized by a 3 minute incubation with 0.25% Trypsin/EDTA, phenol red-free (Gibco BRL). Cells are resuspended in assay medium and adjusted to 250,000 cells/ml. Approximately 25,000 cells in a 100 ul media are added to flat-bottom 96 wells microculture plates (Costar 3596) and incubated at 37° C. in a 5% CO2 humidified incubator for 24 hours. The next day, serial dilutions of compounds are prepared in assay medium (at 6 times the final concentration in the assay). The assay is run in dual mode, agonist and antagonist modes. For the agonist mode, plates receive 25 μl/well of assay medium followed by 25 μl/well of diluted compounds (at 6× the final concentrations). For the antagonist mode, plates receive 25 μl/well of 6 nM E2 (β-Estradiol, Sigma, St. Louis, Mo.) followed by 25 μl/well of diluted compounds (at 6× the final concentrations). After an additional 48-hour incubation at 37° C. in a 5% CO2 humidified incubator, media is aspirated from wells and 100 μl fresh assay medium is added to each microculture. Serial dilutions of compounds are prepared and added to the cells as described above. After an additional 72 hour incubation at 37° C. in a 5% CO2 humidified incubator, the assay is quenched by removing media and rinsing plates twice in Dulbecco's Phosphate Buffered Saline (1×) (D-PBS) (Gibco BRL). The plates are dried for 5 min and frozen at −70° C. for at least 1 hour. The plates are then removed from the freezer and allowed to thaw at room temperature. To each well, 100 μl of 1-Step™ PNPP (Pierce Chemical Company, Rockford, Ill.) is added. After a 20-minute incubation, plates are read on a spectophotometer at 405 nm. The data is fitted to a linear interpolation to derive EC50 (for agonist mode) or IC50 (for antagonist mode) values. For the agonist mode, a % efficacy for each compound is calculated versus the response to Tamoxifen. For the antagonist mode, a % efficacy for each compound is calculated versus E2 (1 nM) alone.

| EC50 | Compound | Agonist % Eff | Antagonist % Eff |
| --- | --- | --- | --- |
| 262 nM | Oc1ccc(C2CCc3cc(O)ccc3N2c2ccc(OCCN3CCCCC3)cc2)cc1 (stereo not drawn) [Example 3] | 117% | −0.2% |
| 161 nM | Oc1ccc(C2CCc3cc(O)ccc3N2c2ccc(OCCN3CCCC3)cc2)cc1 (stereo not drawn) [Example 4] | 36% | 40% |
